Experimental data taken from PubChem BioAssay (NCI).
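How tested: cells in 96-well plates exposed to compound for 48 hours at five concentrations. GI50 = concentration required for 50% inhibition of growth. At the TGI there is no net growth.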

Key:
Assay in all cases: NCI anticancer screen, dose series, 48 h
[1] = system: HCT-15 colon
[2] = system: LOX IMVI melanoma
[3] = system: SN12C renal
[4] = system: SF-539 CNS
[5] = system: CAKI-1 renal
[6] = system: MOLT-4 leukemia
[7] = system: MDA-MB-435
[8] = system: A498 renal
[9] = system: SK-MEL-2 melanoma
[10] = system: OVCAR-8 ovarian
[11] = system: IGROV1 ovarian
[12] = system: K-562 leukemia
[13] = system: SNB-19 CNS
[14] = system: NCI-H23 lung
[15] = system: CCRF-CEM leukemia
[16] = system: UACC-257 melanoma
[17] = system: U251 CNS
[18] = system: HS 578T breast
[19] = system: UACC-62 melanoma
[20] = system: TK-10 renal
[21] = system: RPMI-8226 leukemia
[22] = system: SF-268 CNS
[23] = system: HOP-92 NSCLC
[24] = system: HCC-2998 colon
[25] = system: OVCAR-4 ovarian
[26] = system: NCI/ADR-RES ovarian
[27] = system: SK-MEL-5 melanoma
[28] = system: HCT-116 colon
[29] = system: T-47D breast
[30] = system: NCI-H460 lung
[31] = system: MDA-MB-231 breast
[32] = system: DU-145 prostate
[33] = system: M14 melanoma
[34] = system: UO-31 renal
[35] = system: COLO 205 colon
[36] = system: HT29 colon
[37] = system: SK-MEL-28 melanoma
[38] = system: 786-0 renal
[39] = system: KM12 colon
[40] = system: RXF 393 renal
[41] = system: MALME-3M melanoma
[42] = system: HOP-62 NSCLC
[43] = system: BT-549 breast
[44] = system: A549 NSCLC
[45] = system: SF-295 CNS
[46] = system: PC-3 prostate
[47] = system: MCF7 breast
[48] = system: SR leukemia
[49] = system: SK-OV-3 ovarian
[50] = system: SW-620 colon
[51] = system: NCI-H226 lung
[52] = system: OVCAR-3 ovarian
[53] = system: NCI-H522 lung
[54] = system: OVCAR-5 ovarian
[55] = system: ACHN renal
[56] = system: SNB-75 CNS

Structure (SMILES): O=C(Nc1ccc(OCc2nnc(-c3ccc(Cl)cc3)o2)c(F)c1)Nc1ccc(Cl)c(Cl)c1
- GI50 [1]: 15 µM
- TGI [1]: > 100 µM
- GI50 [2]: 3.3 µM
- TGI [2]: 13.2 µM
- GI50 [3]: 11.3 µM
- TGI [3]: > 100 µM
- GI50 [4]: 6.92 µM
- TGI [4]: 27.7 µM
- GI50 [5]: 21.7 µM
- TGI [5]: > 100 µM
- GI50 [6]: 12.9 µM
- TGI [6]: 53.1 µM
- GI50 [7]: 9.55 µM
- TGI [7]: > 100 µM
- GI50 [8]: 1.56 µM
- TGI [8]: 21.9 µM
- GI50 [9]: 9.23 µM
- TGI [9]: 37 µM
- GI50 [10]: 8.56 µM
- TGI [10]: > 100 µM
- GI50 [11]: 12.2 µM
- TGI [11]: 52.3 µM
- GI50 [12]: 3.77 µM
- TGI [12]: > 100 µM
- GI50 [13]: 5.97 µM
- TGI [13]: 45.5 µM
- GI50 [14]: 4.62 µM
- TGI [14]: 20.6 µM
- GI50 [15]: 7.09 µM
- TGI [15]: 68.6 µM
- GI50 [16]: 10.6 µM
- TGI [16]: > 100 µM
- GI50 [17]: 4.08 µM
- TGI [17]: 25 µM
- GI50 [18]: 1.95 µM
- TGI [18]: 8.53 µM
- GI50 [19]: 5.84 µM
- TGI [19]: 39 µM
- GI50 [20]: 4.78 µM
- TGI [20]: 22.9 µM
- GI50 [21]: 10.7 µM
- TGI [21]: 56.6 µM
- GI50 [22]: 7.58 µM
- TGI [22]: 35.8 µM
- GI50 [23]: 2.39 µM
- TGI [23]: 8.27 µM
- GI50 [24]: 20.7 µM
- TGI [24]: > 100 µM
- GI50 [25]: 2.99 µM
- TGI [25]: 14.1 µM
- GI50 [26]: 10 µM
- TGI [26]: 41.3 µM
- GI50 [27]: 6.6 µM
- TGI [27]: 45.4 µM
- GI50 [28]: 5.01 µM
- TGI [28]: > 100 µM
- GI50 [29]: 2.83 µM
- TGI [29]: 26.5 µM
- GI50 [30]: 3.9 µM
- TGI [30]: 25 µM
- GI50 [31]: 5.39 µM
- TGI [31]: 41.1 µM
- GI50 [32]: 5.07 µM
- TGI [32]: 21.3 µM
- GI50 [33]: 11.3 µM
- TGI [33]: > 100 µM
- GI50 [34]: 13.5 µM
- TGI [34]: 49.3 µM
- GI50 [35]: 6.94 µM
- TGI [35]: > 100 µM
- GI50 [36]: 6.24 µM
- TGI [36]: > 100 µM
- GI50 [37]: 5.17 µM
- TGI [37]: 28.6 µM
- GI50 [38]: 12.5 µM
- TGI [38]: 42.7 µM
- GI50 [39]: 16.5 µM
- TGI [39]: > 100 µM
- GI50 [40]: 6.78 µM
- TGI [40]: 24.2 µM
- GI50 [41]: 2.76 µM
- TGI [41]: 8.77 µM
- GI50 [42]: 3.6 µM
- TGI [42]: 19.5 µM
- GI50 [43]: 7.11 µM
- TGI [43]: 29.7 µM
- GI50 [44]: 6.07 µM
- TGI [44]: 47.1 µM
- GI50 [45]: 3.63 µM
- TGI [45]: 19.5 µM
- GI50 [46]: 6.16 µM
- TGI [46]: 29.9 µM
- GI50 [47]: 5.62 µM
- TGI [47]: > 100 µM
- GI50 [48]: 2.09 µM
- TGI [48]: 7.57 µM
- GI50 [49]: 9.09 µM
- TGI [49]: 40.6 µM
- GI50 [50]: 6.77 µM
- TGI [50]: 67.9 µM
- GI50 [51]: 5.94 µM
- TGI [51]: 56.1 µM
- GI50 [52]: 10.7 µM
- TGI [52]: 35 µM
- GI50 [53]: 6.06 µM
- TGI [53]: 52.1 µM
- GI50 [54]: 22.5 µM
- TGI [54]: > 100 µM
- GI50 [55]: 4.95 µM
- TGI [55]: 62.6 µM
- GI50 [56]: 1.72 µM
- TGI [56]: 4.88 µM
